{"source": "patent US11142524B2", "about": "“Substituted-3H-imidazo[4,5-c]pyridine and 1H-pyrrolo[2,3-c]pyridine series of novel Ectonucleotide Pyrophosphatase/Phosphodiesterase-1 (ENPP1) and stimulator for interferon genes (STING) modulators as cancer immunotherapeutics” (Stingray Therapeutics, Inc., priority 2018, dated 2021)", "key": {"[1]": {"target": "Recombinant Human ENPP-2/Autotaxin Protein (Homo sapiens (Human), UniProt Q13822)", "assay": "ENPP2 Inhibition Assay", "format": "biochemical", "experimental": "Assay Buffer: 10 mM CaCl2, 5 mM MgCl2, 50 mM Tris, 0.02% Brij-35, pH 8.5. Substrate: 2 mM Bis(p-Nitrophenyl) Phosphate Sodium Salt (Sigma Cat # N3002). Enzyme: 0.2 ng/μL Recombinant Human ENPP-2/Autotaxin Protein (R&D Cat #5255-EN), PF-3080 in DMSO in 96-well clear assay plates\nAn eight point serial dilution of drugs was prepared in 10× in assay buffer with the final assay concentrations starting at 10 μM, 3 μM, 1 μM, 0.3 μM . . . 0 μM. A dilution of DMSO was included as a control. The assay plate was set up as follows with each well in duplicate: 15 μL assay buffer+10 μL ENPP1 inhibitor or DMSO+50 μL Substrate+25 μL Enzyme. Both the enzyme and substrate were added to opposite sides of the well to ensure that there was no interaction until all wells had both components. The plate was then centrifuged gently for 10 seconds, followed by an incubation at 37° C. for 45 minutes. The reaction was quantified by measuring absorbance at 405 nm using the Envision.\nIC50 values are determined using GraphPad Prism 5 software. The data were entered as an X-Y plot into the software as percent inhibition for each concentration of the drug. The concentration values of the drug were log transformed and the nonlinear regression was carried out using the “sigmoidal dose-response (variable slope)” option within the GraphPad software to model the data and calculate IC50 values. The IC50 values reported are the concentration of drug at which 50% inhibition was reached."}, "ENPP1 protein [2]": {"target": "T1, ENPP1 protein (Homo sapiens (Human), UniProt P22413)", "assay": "ENPP1 Thermal Shift Assay (Example 1)", "format": "binding", "conditions": "Table 2, FIG. 7, 100 μM drug, 1.0 μg ENPP1"}, "Saos-2 Cells": {"tested_on": "Saos-2 Cells", "assay": "ENPP1 Mineralization Assay", "format": "cell-based", "conditions": "FIG. 9, mineralization components for 3 days"}, "ENPP1 protein [3]": {"target": "T1, ENPP1 protein", "assay": "ENPP1 enzymatic assay with TMP substrate (FIG. 8)", "format": "biochemical", "conditions": "5.0 ng ENPP1, 150 μM TMP substrate", "experimental": "FIG. 8 depicts results of a similar experiment. 5.0 ng of ENPP1 protein exposed to increasing doses of inhibitor (compound 78 or compound 107-02) for 10 minutes in solution, followed by the addition of 150 μM of TMP substrate. The assay was then incubated for 20 minutes and then read at 405 nm on the envision plate reader."}, "B16F10 tumor": {"tested_on": "B16F10 tumor", "assay": "Anti-tumor efficacy in B16F10 (melanoma) syngeneic model", "format": "in vivo, C57BL/6 mice", "from_the_text": "Animals: Female C57BL/6 (4-6 week's age from Taconic).\nThe B16F10 cells were propagated in DMEM cell culture medium containing 10% Fetal Bovine Serum. Cells were harvested in logarithmic growth phase and implanted subcutaneously ([…]) in the lower abdomen of mice. Tumor growth was monitored daily and after the tumors had reached 80 to 100 mm3, mice were randomized into groups consisting of 8 animals per group. Animals were euthanized when tumors reached around 2000 mm^3 or treatment regime completed or 20% of body weight loss, or developed ulceration and necrosis. Upon termination, tumor samples and blood were collected and analyzed for biomarkers."}}}
{"molecule": "COc1ccc(NC(=O)CSc2nc3c(C)c(C#N)ncc3[nH]2)cc1O", "note": "[Compound 78, 2-((6-Cyano-7-methyl-3H-imidazo[4,5-c]pyridin-2-yl)thio)-N-(3-hydroxy-4-methoxyphenyl) acetamide]", "values": [{"measurement": "selective at inhibiting ENPP1 but not ENPP2", "setting": "[1]", "value": "selective"}, {"measurement": "inhibiting the activity of ENPP2", "setting": "[1]; FIGS. 2A and 2B", "value": "ineffective"}, {"measurement": "Tm (° C.)", "setting": "ENPP1 protein [2]; NT 60.05", "value": 61.16, "unit": "°C"}, {"measurement": "ΔTm at 100 µM", "setting": "ENPP1 protein [2]; read-out: ΔTm (° C.)", "value": 1.11, "unit": "°C"}, {"measurement": "total mineralization", "setting": "Saos-2 Cells", "value": "significant decrease"}, {"measurement": "enzymatic activity", "setting": "ENPP1 protein [3]", "value": "significant decrease"}, {"measurement": "B16F10 tumor growth inhibition", "setting": "B16F10 tumor; 30 mg/kg dose (FIG. 6A / FIG. 13A)", "value": 28, "unit": "%"}, {"measurement": "B16F10 tumor growth inhibition", "setting": "B16F10 tumor; FIG. 6B / FIG. 13B, dose and route not stated", "value": 27, "unit": "%"}]}
